Source: patent US7429607B2, “5-HT2B receptor antagonists” (Asterand UK Limited, priority 2002, dated 2008)

How the values were obtained:
[1] = target: T1, cloned human 5-HT2A receptor (Homo sapiens, UniProt P28223); assay: Human 5-HT2A receptor binding assay ([3H]ketanserin, CHO-K1 membranes); conditions: displacement of [3H]ketanserin (1 nM), read-out: 5-HT2A pKi (converted)
T1 construct: purchased Euroscreen; host or cells: CHO-K1 cells
Method: (§1) The binding affinity of ligands for human 5-HT2A and 5-HT2C receptors was determined using the following assay.
Membrane preparations from CHO-K1 cells expressing the cloned human 5-HT2A receptor were obtained (Euroscreen). The membranes were thawed rapidly and diluted in assay buffer containing Tris-HCl (50 mM, pH 7.7). The membranes were resuspended by homogenisation, prior to adding 15 μg of membranes to assay wells containing [3H] ketanserin (1 nM), assay buffer (50 mM Tris at pH 7.4) containing pargyline (10 μM), and test compounds (1×10^−10 to 1×10^−4M). Non specific binding was determined in the presence of 100 μM mianserin. After 15 minutes incubation at 37° C., the assay mixture was filtered through a combination of GF-C and GF-B filters, pre-soaked in 0.05% Brij, using a Brandel cell harvester, and were washed three times using ice cold Tris-HCl buffer (50 mM). Radioactivity retained on the filters was determined by liquid scintillation counting. For each test compound, the concentration that inhibited binding of [^3H]ketanserin by 50% was determined using curve fitting software (Prism). Kd values (concentration of ketanserin required to occupy 50% of the receptor binding sites at equlibrium) determined from saturation binding studies were then used to calculate inhibition dissociation constants (Ki) using the following equation: […]

[2] = target: T2, human cloned 5-HT2B receptors (Homo sapiens, UniProt P41595); assay: Human cloned 5-HT2B receptor binding assay ([3H]LSD, CHO-K1 membranes); conditions: displacement of [3H]LSD (1 nM), read-out: 5-HT2B pKi (converted)
T2 construct: expressed in transfected cells; host or cells: CHO-K1 cells
T2 sequence (P41595 whole entry): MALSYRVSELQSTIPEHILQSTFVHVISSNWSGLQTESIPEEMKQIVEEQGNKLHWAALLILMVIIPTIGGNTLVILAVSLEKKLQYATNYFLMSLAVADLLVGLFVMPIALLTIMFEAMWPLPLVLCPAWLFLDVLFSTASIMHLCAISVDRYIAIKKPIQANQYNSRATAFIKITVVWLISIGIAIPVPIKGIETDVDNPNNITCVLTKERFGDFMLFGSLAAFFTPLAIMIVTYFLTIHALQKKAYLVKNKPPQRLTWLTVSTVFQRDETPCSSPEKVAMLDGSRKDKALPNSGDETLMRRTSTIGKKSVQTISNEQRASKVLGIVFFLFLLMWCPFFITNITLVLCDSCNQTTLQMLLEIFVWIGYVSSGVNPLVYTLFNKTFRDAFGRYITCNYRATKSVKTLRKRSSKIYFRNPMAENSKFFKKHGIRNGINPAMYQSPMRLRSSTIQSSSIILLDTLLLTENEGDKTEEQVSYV
Method: The binding affinity of the compounds for human cloned 5-HT2B receptors was determined using the following assay.
CHO-K1 cells expressing cloned 5-HT2B receptor were maintained in Ultra-CHO medium containing 400 μg/ml of G418, 100 U/ml penicillin, 100 μg/ml streptomycin, 2.5 μg/ml fungizone and 1% foetal bovine serum, in 95/5% O2/CO2 at 37° C. The cells were harvested using 0.25% trypsin and were centrifuged at 800 rpm for 8 minutes. The cells were homogenised in 50 mM HEPES buffer containing 1 mM disodium EDTA and 1 mM PMSF at pH 7.4, using a Dounce homogeniser (20 strokes). The homogenate was centrifuged at 2280 rpm (1000 g) and 4° C. for 10 minutes, after which the supernatant was removed by decanting. The pellet was re-homogenised as above, and the resulting supernatant removed and combined with that already obtained. The supernatant solution was then centrifuged at 18300 rpm (40000 g) for 10 minutes at 4° C. using a Sorvall centrifuge. The supernatant was removed, and the pellet was re-suspended in 50 mM buffer at pH 7.4 using a Ultra-turrax T25 Polytron, before centrifugation again at 40000 g as above. This wash procedure was repeated, after which the membrane preparation was stored at a concentration of 1 mg/ml at −80° C. until use.
The membranes were thawed rapidly and diluted in assay buffer containing Tris-HCl (50 mM, pH 7.4), ascorbic acid (0.1%) and calcium chloride (4 mM). The membranes were homogenised to resuspend them, prior to adding 10 or 15 μg of membranes to assay wells containing [^3H]LSD (1 nM), assay buffer (50 mM Tris, 4 mM calcium chloride and 0.1% ascorbic acid) containing pargyline (10 μM), and the test compounds (1×10^−10 to 1×10^−4M). Non specific binding was determined in the presence of 100 μM 5-HT. After 30 minutes incubation at 37° C., the assay mixture was filtered through a combination of GF-C and GF-B filters, pre-soaked in 1% polyethyleneimine, using a Brandel cell harvester, and were washed three times using 50 mM Tris-HCl. Radioactivity retained on the filters was determined by liquid scintillation counting. For each test compound, the concentration that inhibited binding of [3H]LSD by 50% was determined using curve fitting software (Prism). Kd values (concentration of LSD required to occupy 50% of the receptor binding sites at equilibrium) determined from saturation binding studies were then used to calculate inhibition dissociation constants (Ki) using the following equation: […]
This approach follows that set out in Kenakin, T.P. Pharmacologic analysis of drug-receptor interaction. Raven Press, New York, 2nd Edition.

[3] = target: T3, cloned human 5-HT2C receptor (Homo sapiens, UniProt P28335); assay: Human 5-HT2C receptor binding assay ([3H]mesulergine, CHO-K1 membranes); conditions: displacement of [3H]mesulergine (1 nM), read-out: 5-HT2C pKi (converted)
T3 construct: purchased Euroscreen; host or cells: CHO-K1 cells
T3 sequence (P28335 33-458): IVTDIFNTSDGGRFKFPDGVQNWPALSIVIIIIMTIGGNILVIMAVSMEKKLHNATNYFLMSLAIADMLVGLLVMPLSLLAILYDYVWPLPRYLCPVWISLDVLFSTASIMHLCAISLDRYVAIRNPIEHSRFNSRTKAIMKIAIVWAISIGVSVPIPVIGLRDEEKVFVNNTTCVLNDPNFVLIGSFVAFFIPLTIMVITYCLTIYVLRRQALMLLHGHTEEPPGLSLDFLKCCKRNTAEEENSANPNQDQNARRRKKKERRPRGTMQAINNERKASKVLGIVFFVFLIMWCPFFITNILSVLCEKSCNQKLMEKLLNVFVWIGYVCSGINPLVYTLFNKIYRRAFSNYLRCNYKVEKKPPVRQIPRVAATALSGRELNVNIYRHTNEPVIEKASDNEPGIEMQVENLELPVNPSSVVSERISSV
Method: as §1
Membrane preparations from CHO-K1 cells expressing the cloned human 5-HT2C receptor were obtained (Euroscreen). The membranes were thawed rapidly and diluted in assay buffer containing Tris-HCl (50 mM, pH 7.7), ascorbic acid (0.1%) and pargyline (10 μM). The membranes were resuspended by homogenisation, prior to adding 6 μg of membranes to assay wells containing [^3H] mesulergine (1 nM), assay buffer (50 mM Tris at pH 7.7 and 0.1% ascorbic acid) containing pargyline (10 μM), and test compounds (1×10^−10 to 1×10^−4M). Non specific binding was determined in the presence of 100 μM mianserin. After 30 minutes incubation at 37° C., the assay mixture was filtered through a combination of GF-C and GF-B filters, pre-soaked in 1% bovine serum albumin, using a Brandel cell harvester, and were washed three times using ice cold Tris-HCl buffer (50 mM). Radioactivity retained on the filters was determined by liquid scintillation counting. For each test compound, the concentration that inhibited binding of [3H]mesulergine by 50% was determined using curve fitting software (Prism). Kd values (concentration of mesulergine required to occupy 50% of the receptor binding sites at equlibrium) determined from saturation binding studies were then used to calculate inhibition dissociation constants (Ki) using the following equation: […]

[4] = target: T2, human cloned 5-HT2B receptors; assay: Human cloned 5-HT2B cell-based functional assay (Fluo-4, CHO.K1 cells); conditions: inhibition of 5-HT response, CHO.K1 cells expressing cloned 5-HT2B, Fluo-4 AM
Method: The following describes an in vitro functional assay using human cloned 5-HT2B receptors to determine the ability of compounds to block the receptor. CHO.K1 cells expressing cloned 5-HT2B receptor were maintained In Ultra-CHO medium containing 400 μg/ml of G418, 100 U/ml penicillin, 100 μg/ml streptomycin, 2.5 μg/ml fungizone, in 95/5% O2/CO2 at 37° C. Ultra-CHO medium additionally supplemented with 1% foetal bovine serum was used when seeding the cells and removed after 5 hours. Cells were plated in Costar 96 well white, clear-bottomed plate at a density of 50,000 cells per well and incubated for at least 24 hours in 95/5% O2/CO2 at 37° C. before running the assay. Media was removed from the wells and 200 μl of 4 μM Fluo-4 AM added, this was incubated in a Wallace Victor 2V workstation at 37° C. for 30 minutes. The Fluo-4 AM was then removed from the wells, which were then washed twice with 200 μl of buffer (HBSS without calcium/magnesium/phenol red, 20 mM HEPES, 1 mM Ca^2+, 1 mM Mg^2+, 2.5 mM probenecid, pH to 7.4), 180 μl of buffer or test compound was added to the well and incubated for 30 minutes. The Victor 2V injectors were used to inject 20 μl of 5-HT after obtaining 10 0.1-second baseline readings at 535 nm, followed by 150 readings. All test compounds were aliquoted in 100% DMSO at 10 mM and diluted to 1 mM in 50% DMSO, subsequent dilutions were made using buffer. Buffer was also used to dilute the 5-HT. Data were analysed using Microsoft Excel and GraphPad Prism, with the latter used to produce sigmoidal dose-response curves for each compound. The compound concentration that inhibited the 5-HT response by 50% was taken (IC50-M), and the results are shown in Table 3, as pIC50, being the negative log (to the base 10) of the measured IC50 values.

T1 sequence (P28223 whole entry): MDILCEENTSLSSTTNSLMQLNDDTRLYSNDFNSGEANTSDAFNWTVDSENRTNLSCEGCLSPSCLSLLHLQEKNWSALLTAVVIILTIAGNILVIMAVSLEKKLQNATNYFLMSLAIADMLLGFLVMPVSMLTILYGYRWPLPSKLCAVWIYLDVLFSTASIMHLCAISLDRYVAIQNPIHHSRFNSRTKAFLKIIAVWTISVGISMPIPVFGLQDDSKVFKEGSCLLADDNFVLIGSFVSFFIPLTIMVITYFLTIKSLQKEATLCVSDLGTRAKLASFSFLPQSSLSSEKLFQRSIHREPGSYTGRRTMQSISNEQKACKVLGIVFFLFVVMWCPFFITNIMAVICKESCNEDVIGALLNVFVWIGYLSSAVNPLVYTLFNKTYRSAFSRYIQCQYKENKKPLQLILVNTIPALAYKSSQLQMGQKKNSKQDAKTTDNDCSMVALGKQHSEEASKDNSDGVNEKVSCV

SMILES	melting point [°C]	Ki [1] [nM]	Ki [2] [nM]	Ki [3] [nM]	IC50 [4] [nM]
CNc1nc(-c2cccc3ccccc23)co1 [Compound 2, 2-methylamino-4-(naphth-1-yl)oxazole]	164 to 166	> 10000	< 1000	> 1000	< 10000
COc1ccc2ccccc2c1-c1coc(NC(C)=O)n1 [Compound 25, N-[4-(2-methoxy-naphthalen-1-yl)-oxazol-2-yl]-acetamide]		> 1000	< 100	> 1000	< 1000
Nc1nc(-c2ccc3ccccc3c2)co1 [Compound 16, 4-naphthalen-2-yl-oxazol-2-ylamine]		> 10000	< 1000	> 10000	< 10000
Cc1nc(N)oc1-c1cccc2ccccc12 [Compound 3, 2-amino-4-methyl-5-(naphth-1-yl)oxazole]	187 to 189	> 10000	< 10	> 10000	< 100
